According to publication PMC4507791 (Drug Design, Development and Therapy, 2015):
Values joined by “and” are separate entries in the source; they are usually repeats but may differ in a detail not shown here. Equal values may be shown once.

How the values were obtained:
MAO-B [1] = molecular target: T1, MAO-B (Homo sapiens, UniProt P27338); assay: IC50 determination, inhibition of recombinant human MAO-B; assay type: biochemical; details: for SI (selectivity index, IC50(MAO-A)/IC50(MAO-B)): selectivity for the MAO-B isoform
T1 sequence (P27338 1-520): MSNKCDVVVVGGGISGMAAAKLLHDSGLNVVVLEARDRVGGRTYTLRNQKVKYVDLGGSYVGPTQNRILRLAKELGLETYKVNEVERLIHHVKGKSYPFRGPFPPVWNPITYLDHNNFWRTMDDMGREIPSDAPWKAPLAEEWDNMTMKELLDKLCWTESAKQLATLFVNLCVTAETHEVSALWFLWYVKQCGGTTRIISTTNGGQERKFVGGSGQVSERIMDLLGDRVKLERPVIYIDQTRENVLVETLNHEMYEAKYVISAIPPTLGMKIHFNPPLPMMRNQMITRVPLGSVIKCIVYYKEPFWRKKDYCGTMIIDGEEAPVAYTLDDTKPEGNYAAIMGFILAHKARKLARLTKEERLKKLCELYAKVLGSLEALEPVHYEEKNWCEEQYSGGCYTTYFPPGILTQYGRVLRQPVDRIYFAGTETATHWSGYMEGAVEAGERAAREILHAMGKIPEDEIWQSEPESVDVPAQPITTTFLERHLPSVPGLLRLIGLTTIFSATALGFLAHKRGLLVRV

recombinant human MAO-A = molecular target: T2, recombinant human MAO-A (Homo sapiens, UniProt P21397); assay: IC50 determination, inhibition of recombinant human MAO-A; assay type: biochemical; details: mean ± SD of triplicate determinations
T2 sequence (P21397 1-527): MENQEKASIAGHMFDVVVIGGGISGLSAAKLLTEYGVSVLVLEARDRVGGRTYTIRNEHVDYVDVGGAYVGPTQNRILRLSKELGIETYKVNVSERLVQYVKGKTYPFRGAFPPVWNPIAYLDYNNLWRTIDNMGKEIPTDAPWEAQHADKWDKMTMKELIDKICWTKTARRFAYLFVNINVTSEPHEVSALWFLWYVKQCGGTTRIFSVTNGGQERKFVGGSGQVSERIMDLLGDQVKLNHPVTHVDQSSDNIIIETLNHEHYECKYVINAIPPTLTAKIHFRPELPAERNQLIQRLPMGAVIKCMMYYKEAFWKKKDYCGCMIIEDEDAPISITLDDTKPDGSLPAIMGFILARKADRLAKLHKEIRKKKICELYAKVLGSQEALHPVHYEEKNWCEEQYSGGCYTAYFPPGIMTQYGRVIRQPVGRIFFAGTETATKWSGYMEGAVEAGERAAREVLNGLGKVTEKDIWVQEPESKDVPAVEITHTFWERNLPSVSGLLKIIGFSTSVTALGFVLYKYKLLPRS

human MAO-B = human MAO-B (Homo sapiens, UniProt P27338); details: Lineweaver-Burk graphs linear, intersect on y axis
MAO-B [2] = molecular target: T1, MAO-B

Row | SI (selectivity index, IC50(MAO-A)/IC50(MAO-B)) (MAO-B [1]) | IC50 (recombinant human MAO-A) | IC50 (MAO-B [1]) [nM] | Mode of MAO-B inhibition (human MAO-B) | Reversibility of MAO-B inhibition by dialysis (MAO-B [2]) | Residual MAO-B catalytic activity after dialysis (% of negative control value) (MAO-B [2]; inhibitor at 4× IC50, incubated 15 minutes, dialyzed for 24 hours) [%] | Fold weaker as MAO-B inhibitor than compound 2b (MAO-B [1]; relative to weakest inhibitor of the series, 2b (IC50 = 0.157 µM)) [fold] | Compound
1 | 1,194 | 8360 ± 442 nM |  |  |  |  |  | CC(=O)c1ccc(OCc2ccccc2)cc1O [Compound 2a, 2-Acetyl-5-benzyloxyphenol]
2 | 30 | 4700 ± 716 nM | 157 ± 41 |  |  |  |  | CC(=O)c1ccc(OCCc2ccccc2)cc1O [Compound 2b, 2-Acetyl-5-(2-phenylethoxy)phenol]
3 | 178 | 10700 ± 2300 nM | 60 ± 13 |  |  |  |  | CC(=O)c1ccc(OCCCc2ccccc2)cc1O [Compound 2c, 2-Acetyl-5-(3-phenylpropoxy)phenol]
4 |  | > 17700 nM |  |  |  |  |  | CC(=O)c1ccc(OCc2cccc(F)c2)cc1O [Compound 2d, 2-Acetyl-5-(3-fluorobenzyloxy)phenol]
5 |  |  |  | competitive inhibitor | only partially reversed | 52 |  | CC(=O)c1ccc(OCc2ccc(F)cc2)cc1O [Compound 2e, 2-Acetyl-5-(4-fluorobenzyloxy)phenol]
6 |  | > 17700 nM |  |  |  |  |  | CC(=O)c1ccc(OCc2cccc(Cl)c2)cc1O [Compound 2f, 2-Acetyl-5-(3-chlorobenzyloxy)phenol]
7 |  | 1810 ± 284 nM |  |  |  |  |  | CC(=O)c1ccc(OCc2ccc(Cl)cc2)cc1O [Compound 2g, 2-Acetyl-5-(4-chlorobenzyloxy)phenol]
8 | 1,921 | 26900 ± 1800 nM | 14 ± 2 |  |  |  |  | CC(=O)c1ccc(OCc2cccc(I)c2)cc1O [Compound 2h, 2-Acetyl-5-(3-iodobenzyloxy)phenol]
9 | 328 | 17700 ± 2800 nM | 54 ± 10 |  |  |  |  | CC(=O)c1ccc(OCc2cccc(C)c2)cc1O [Compound 2i, 2-Acetyl-5-(3-methylbenzyloxy)phenol]
10 | 969 | 25200 ± 939 nM | 26 ± 2 |  |  |  |  | CC(=O)c1ccc(OCc2ccc(C)cc2)cc1O [Compound 2j, 2-Acetyl-5-(4-methylbenzyloxy)phenol]
11 | 71 | 1640 ± 213 nM | 23 ± 0.3 |  |  |  |  | CC(=O)c1ccc(OCc2cccc(C#N)c2)cc1O [Compound 2k, 2-Acetyl-5-(3-cyanobenzyloxy)phenol]
12 | 680 | 2720 ± 352 nM | 4 ± 1 |  |  |  |  | CC(=O)c1ccc(OCc2ccc(C#N)cc2)cc1O [Compound 2l, 2-Acetyl-5-(4-cyanobenzyloxy)phenol]
13 | 1,360 | 13600 ± 238 nM | 10 ± 3 |  |  |  |  | CC(=O)c1ccc(OCc2ccc(C(F)(F)F)cc2)cc1O [Compound 2m, 2-Acetyl-5-[4-(trifluoromethyl)benzyloxy] phenol]
14 | 387 | 60400 ± 8000 nM | 156 ± 50 |  |  |  |  | CCCCCCCOc1ccc(C(C)=O)c(O)c1 [Compound 2o, 2-Acetyl-5-heptyloxyphenol]
15 | 722 | 19500 ± 2470 nM | 27 ± 3 |  |  |  |  | CC(=O)c1ccc(OCc2ccccc2)cc1 [Compound 3a, 4′-Benzyloxyacetophenone]
16 | 9,550 | > 17700 nM and 38200 nM | 4 ± 1 |  |  |  |  | CCC(=O)c1ccc(OCc2ccccc2)cc1O [Compound 3b, 2-Propanoyl-5-benzyloxyphenol]
17 | 1.2 | 47700 ± 3120 nM | 39700 ± 5030 |  |  |  | 250 | CC(=O)c1ccc(O)cc1O [Compound 4, 2′,4′-dihydroxyacetophenone, reference compound]

Row | Compound | SI (selectivity index, IC50(MAO-A)/IC50(MAO-B)) (MAO-B [1]) | IC50 (recombinant human MAO-A) | IC50 (MAO-B [1]) [nM] | Mode of MAO-B inhibition (human MAO-B) | Reversibility of MAO-B inhibition by dialysis (MAO-B [2]) | Residual MAO-B catalytic activity after dialysis (% of negative control value) (MAO-B [2]; inhibitor at 4× IC50, incubated 15 minutes, dialyzed for 24 hours) [%] | Fold weaker as MAO-B inhibitor than compound 2b (MAO-B [1]; relative to weakest inhibitor of the series, 2b (IC50 = 0.157 µM)) [fold]
18 | CCCCOc1ccc(C(C)=O)c(O)c1 [Compound 2n, 2-Acetyl-5-butoxyphenol] | 84 | 8650 ± 1040 nM | 103 ± 15 |  |  |  | 
